Patent US20050197350A1, “Novel quinoline, tetrahydroquinazoline, and pyrimidine derivatives and methods of treatment related to the use thereof” (TAISHO PHARMACEUTICAL CO., LTD., priority 2003, published 2005)
Where two headings read alike, the source gives them in different places.

Tested on: MCH receptors
Assay: MCH receptor activity class (method not given)
[1] = class by percent of control at 10^−7 M or IC50
[2] = activity class per percent of control at 10^-7 M or IC50
[3] = class by percent of control at 10^-7 M or IC50
[4] = MCH receptor, class by percent of control at 10^-7 M or IC50
[5] = activity class 1-3: percent of control at 10^-7 M or IC50
[6] = class 1-3 by percent of control at 10^-7 M or IC50

## COc1ccc(C(=O)N[C@H]2CC[C@@H](Nc3ncc(C)c(N(C)C)n3)CC2)cc1C(F)(F)F [compound 2936, N-(cis-4-{[4-(dimethylamino)-5-methylpyrimidin-2-yl]amino}cyclohexyl)-4-methoxy-3-(trifluoromethyl)benzamide]
[1]
  class: 1 (Class 1: The value of percent of control at 10^−7 M was less than 40% or the value of IC50 was less than 50 nM.)

## Cc1cnc(N[C@H]2CC[C@@H](NCc3ccc(F)c(F)c3)CC2)nc1N(C)C [compound 2997]
[1]
  class: 3 (Class 3 The value of percent of control at 10^−7 M was more than 60% or the value of IC50 was more than 200 nM.)

## CN(C)c1nc(N[C@H]2CC[C@@H](NC(=O)C3CCc4ccccc4C3)CC2)nc2c1CCCC2 (relative stereo) [compound 1053]
[2]
  class: 3 (Class 3 The value of percent of control at 10^−7 M was more than 60% or the value of IC50 was more than 200 nM.)

## CN(C)c1cc(N[C@H]2CC[C@@H](NCc3ccc(F)c(Br)c3)CC2)nc2ccccc12 [compound 1105]
[2]
  class: 3 (Class 3 The value of percent of control at 10^−7 M was more than 60% or the value of IC50 was more than 200 nM.)

## CN(C)c1nc(N[C@H]2CC[C@@H](NC(=O)Nc3cccc([N+](=O)[O-])c3)CC2)nc2c1CCCC2 [compound 1874]
[3]
  class: 3 (Class 3 The value of percent of control at 10^−7 M was more than 60% or the value of IC50 was more than 200 nM.)

## COC(=O)c1cc(NC(=O)N[C@H]2CC[C@@H](Nc3nc4c(c(N(C)C)n3)CCCC4)CC2)cc(C(=O)OC)c1 [compound 1911]
[4]
  class: 3 (Class 3 The value of percent of control at 10^−7 M was more than 60% or the value of IC50 was more than 200 nM.)

## CN(C)c1nc(N[C@H]2CC[C@@H](NC(=O)Nc3cc(Cl)ccc3Cl)CC2)nc2c1CCCC2 [compound 1821]
[3]
  class: 3 (Class 3 The value of percent of control at 10^−7 M was more than 60% or the value of IC50 was more than 200 nM.)

## CCCN(CCC)C(=O)[C@H](CCC(=O)N[C@H]1CC[C@@H](Nc2nccc(N(C)C)n2)CC1)NC(=O)c1ccccc1 (relative stereo) [compound 870]
[3]
  class: 2 (Class 2: The value of percent of control at 10^−7 M was from 40% to 60% or the value of IC′50 was from 50 nM to 200 nM.)

## Cc1cc(N(C)C)nc(N[C@H]2CC[C@@H](CNC(=O)c3ccc(Br)c(C)c3)CC2)n1 [compound 2763]
[1]
  class: 1 (Class 1: The value of percent of control at 10^−7 M was less than 40% or the value of IC50 was less than 50 nM.)

## CN(C)c1nc(N[C@H]2CC[C@@H](CNC(=O)Oc3ccc(Br)cc3)CC2)nc2c1CCCC2 [compound 1603]
[5]
  class: 3 (Class 3 The value of percent of control at 10^−7 M was more than 60% or the value of IC50 was more than 200 nM.)

## Cc1cc(N(C)C)nc(N[C@H]2CC[C@@H](NC(=O)c3cccc(OC(C)C)c3)CC2)n1 [compound 2977, N-(cis-4-{[4-(dimethylamino)-6-methylpyrimidin-2-yl]amino}cyclohexyl)-3-isopropoxybenzamide]
[1]
  class: 1 (Class 1: The value of percent of control at 10^−7 M was less than 40% or the value of IC50 was less than 50 nM.)

## CN(C)c1cc(N[C@H]2CC[C@@H](NC(=O)c3cccc(Br)c3)CC2)nc2ccccc12 [compound 21]
[4]
  class: 1 (Class 1: The value of percent of control at 10^−7 M was less than 40% or the value of IC50 was less than 50 nM.)

## COc1cccc(OC)c1CN[C@H]1CC[C@@H](Nc2cc(N(C)C)c3ccccc3n2)CC1 [compound 1085]
[2]
  class: 3 (Class 3 The value of percent of control at 10^−7 M was more than 60% or the value of IC50 was more than 200 nM.)

## CN(C)c1cc(N[C@H]2CC[C@@H](CNC(=O)NC(c3ccccc3)c3ccccc3)CC2)nc2ccccc12 [compound 2389, N-[(cis-4-{[4-(dimethylamino)quinolin-2-yl]amino}cyclohexyl)methyl]-N′-(diphenylmethyl)urea]
MCH receptor activity class 1-3 (percent of control at 10^-7 M or IC50)
  class: 2 (Class 2: The value of percent of control at 10^−7 M was from 40% to 60% or the value of IC′50 was from 50 nM to 200 nM.)

## CN(C)c1nc(N[C@H]2CC[C@@H](NC(=S)Nc3cc(F)ccc3Br)CC2)nc2c1CCCC2 [compound 2061]
[4]
  class: 3 (Class 3 The value of percent of control at 10^−7 M was more than 60% or the value of IC50 was more than 200 nM.)

## CN(C)c1nc(N[C@H]2CC[C@@H](NC(=O)Nc3cc(C(F)(F)F)ccc3F)CC2)nc2c1CCCC2 [compound 1859]
[3]
  class: 3 (Class 3 The value of percent of control at 10^−7 M was more than 60% or the value of IC50 was more than 200 nM.)

## Cc1cc(C)c(C(=O)NC[C@H]2CC[C@@H](Nc3cc(N(C)C)c4ccccc4n3)CC2)c(C)c1 [compound 231, N-[(cis-4-{[4-(dimethylamino)quinolin-2-yl]amino}cyclohexyl)methyl]-2,4,6-trimethylbenzamide]
[3]
  class: 1 (Class 1: The value of percent of control at 10^−7 M was less than 40% or the value of IC50 was less than 50 nM.)

## CN(C)c1ccnc(N[C@H]2CC[C@@H](CNC(=O)c3c(F)ccc(F)c3Cl)CC2)n1 [compound 454]
[6]
  class: 3 (Class 3 The value of percent of control at 10^−7 M was more than 60% or the value of IC50 was more than 200 nM.)

## COc1ccc(Br)c(C(=O)N[C@H]2CC[C@@H](Nc3nc4c(c(N(C)C)n3)CCCC4)CC2)c1 [compound 557]
[6]
  class: 3 (Class 3 The value of percent of control at 10^−7 M was more than 60% or the value of IC50 was more than 200 nM.)

## CN(C)c1ccnc(N[C@H]2CC[C@@H](NC(=O)c3cnc4ccccc4c3)CC2)n1 [compound 915]
[3]
  class: 3 (Class 3 The value of percent of control at 10^−7 M was more than 60% or the value of IC50 was more than 200 nM.)

## COC(=O)c1sccc1NC(=S)N[C@H]1CC[C@@H](Nc2nc3c(c(N(C)C)n2)CCCC3)CC1 [compound 1792]
[3]
  class: 3 (Class 3 The value of percent of control at 10^−7 M was more than 60% or the value of IC50 was more than 200 nM.)

## COc1ccccc1CNC(=S)N[C@H]1CC[C@@H](Nc2nc3c(c(N(C)C)n2)CCCC3)CC1 [compound 2062]
[4]
  class: 3 (Class 3 The value of percent of control at 10^−7 M was more than 60% or the value of IC50 was more than 200 nM.)

## Cc1cc(N[C@H]2CC[C@@H](NC(=O)Nc3ccc(Oc4ccccc4)cc3)CC2)nc2ccccc12 [Example 2559, N-{cis-4-[(4-methylquinolin-2-yl)amino]cyclohexyl}-N′-(4-phenoxyphenyl)urea]
  class: 1

## Cc1cnc(N[C@H]2CC[C@@H](NC(=O)c3ccc(C(F)(F)F)cc3)CC2)nc1N(C)C [compound 2912, N-(cis-4-{[4-(dimethylamino)-5-methylpyrimidin-2-yl]amino}cyclohexyl)-4-(trifluoromethyl)benzamide]
[1]
  class: 1 (Class 1: The value of percent of control at 10^−7 M was less than 40% or the value of IC50 was less than 50 nM.)

## Cc1cc(N(C)C)nc(N[C@H]2CC[C@@H](CNC(=O)c3ccc(OC(F)(F)F)cc3)CC2)n1 [compound 2760]
[1]
  class: 3 (Class 3 The value of percent of control at 10^−7 M was more than 60% or the value of IC50 was more than 200 nM.)

## CN(C)c1nc(N[C@H]2CC[C@@H](NC(=O)Nc3ccc(F)c(F)c3)CC2)nc2c1CCCC2 [compound 1803]
[3]
  class: 3 (Class 3 The value of percent of control at 10^−7 M was more than 60% or the value of IC50 was more than 200 nM.)

## CCCN(CCC)S(=O)(=O)c1ccc(C(=O)N[C@H]2CC[C@@H](Nc3nc4c(c(N(C)C)n3)CCCC4)CC2)cc1 [compound 574]
[6]
  class: 3 (Class 3 The value of percent of control at 10^−7 M was more than 60% or the value of IC50 was more than 200 nM.)

## CN(C)c1nc(N[C@H]2CC[C@@H](NC(=O)c3ccccc3Cc3ccccc3)CC2)nc2c1CCCC2 [compound 961]
[3]
  class: 2 (Class 2: The value of percent of control at 10^−7 M was from 40% to 60% or the value of IC′50 was from 50 nM to 200 nM.)

## CN(C)c1nc(N[C@H]2CC[C@@H](CNC(=O)C3c4ccccc4Oc4ccccc43)CC2)nc2c1CCCC2 [compound 1083]
[2]
  class: 3 (Class 3 The value of percent of control at 10^−7 M was more than 60% or the value of IC50 was more than 200 nM.)

## COc1cccc(CC(=O)N[C@H]2CC[C@@H](Nc3nc4c(c(N(C)C)n3)CCCC4)CC2)c1 [compound 503]
[6]
  class: 2 (Class 2: The value of percent of control at 10^−7 M was from 40% to 60% or the value of IC′50 was from 50 nM to 200 nM.)

## CN(C)c1cc(N[C@H]2CC[C@@H](NCCN(CCC#N)c3ccccc3)CC2)nc2ccccc12 [compound 1455]
[3]
  class: 2 (Class 2: The value of percent of control at 10^−7 M was from 40% to 60% or the value of IC′50 was from 50 nM to 200 nM.)

## CCc1ccccc1NC(=O)N[C@H]1CC[C@@H](Nc2nc3c(c(N(C)C)n2)CCCC3)CC1 [compound 1677]
[5]
  class: 2 (Class 2: The value of percent of control at 10^−7 M was from 40% to 60% or the value of IC′50 was from 50 nM to 200 nM.)

## Cc1cc(CNC[C@H]2CC[C@@H](Nc3nc4c(c(N(C)C)n3)CCCC4)CC2)cc(C)c1O [compound 1382]
[3]
  class: 2 (Class 2: The value of percent of control at 10^−7 M was from 40% to 60% or the value of IC′50 was from 50 nM to 200 nM.)

## COC(=O)[C@H](CCSC)NC(=O)N[C@H]1CC[C@@H](Nc2nc3c(c(N(C)C)n2)CCCC3)CC1 (relative stereo) [compound 1699]
[5]
  class: 3 (Class 3 The value of percent of control at 10^−7 M was more than 60% or the value of IC50 was more than 200 nM.)

## CSc1cccc(NC(=O)N[C@H]2CC[C@@H](Nc3nc4c(c(N(C)C)n3)CCCC4)CC2)c1 [compound 1865]
[3]
  class: 3 (Class 3 The value of percent of control at 10^−7 M was more than 60% or the value of IC50 was more than 200 nM.)

## CN(C)c1ccnc(N[C@H]2CC[C@@H](NC(=O)Cc3ccc(F)cc3)CC2)n1 [compound 286]
[3]
  class: 3 (Class 3 The value of percent of control at 10^−7 M was more than 60% or the value of IC50 was more than 200 nM.)

## CN(C)c1cc(N[C@H]2CC[C@@H](NC(=O)Cc3ccccc3C(=O)Nc3ccc(Cl)cc3Cl)CC2)nc2ccccc12 [compound 723]
[3]
  class: 3 (Class 3 The value of percent of control at 10^−7 M was more than 60% or the value of IC50 was more than 200 nM.)

## COc1cc(CNC[C@H]2CC[C@@H](Nc3cc(N(C)C)c4ccccc4n3)CC2)cc2c1OCO2 [compound 1188]
[3]
  class: 2 (Class 2: The value of percent of control at 10^−7 M was from 40% to 60% or the value of IC′50 was from 50 nM to 200 nM.)
